Legend:
Shaker KV channel R362Q [1] = molecular target: T1, Shaker KV channel R362Q (Drosophila melanogaster, UniProt P08510, DEL6-46/R362Q); conditions: Fig. 1 E; ref Ottosson et al., 2017; Silverå Ejneby et al., 2018; cited from earlier work
T1 construct: expressed in transfected cells; host or cells: Xenopus laevis oocytes (RNA injection)

[2] = molecular target: T2, Shaker KV channel with the 2R motif (M356R/A359R) (Drosophila melanogaster, UniProt P08510, A359R/DEL6-46/M356R); assay: Two-electrode voltage clamp in Xenopus oocytes: 2R motif channel; type: cell-based
T2 construct: expressed in transfected cells; host or cells: Xenopus laevis oocytes (RNA injection)
Source text: (§1) The Shaker H4 channel (GenBank accession no. NM_167595.3; [Kamb et al., 1987]), with removed N-type inactivation due to a Δ6-46 deletion (ShH4IR, in Bluescript II KS(+) plasmid; [Hoshi et al., 1990]), is referred to as the WT Shaker KV channel. […] Therefore, we specifically refer to the two added arginines just outside S4 (M356R/A359R) as the 2R motif. Mutations were introduced with site-directed mutagenesis and verified with sequencing as described previously ([Börjesson et al., 2010]). RNA injection and oocyte handling were performed as before ([Börjesson et al., 2010]; [Ottosson et al., 2015]). All animal experiments were approved by the Linköping’s local Animal Care and Use Committee.
(§2) Electrophysiological experiments were made 1–6 d after RNA injection. K^+ currents were measured with the two-electrode voltage-clamp technique (GeneClamp 500B amplifier; Axon Instruments) as described previously ([Ottosson et al., 2015]; [Silverå Ejneby et al., 2018]). The amplifier’s leak compensation was used, and the currents were low-pass filtered at 5 kHz. The control solution contained (in mM) 88 NaCl, 1 KCl, 15 HEPES, 0.4 CaCl2, and 0.8 MgCl2, and pH was set with NaOH. All experiments were made at room temperature (20°C–23°C). The holding potential was set to −80 mV (or −100 mV if the mutant was not fully closed at −80 mV).
(§3) Stock solutions were stored at −20°C and diluted in control solution just before experiments. The test solution was added to the oocyte bath manually with a syringe. […] To make sure all Wu50 molecules were negatively charged, the pH of the control solution was set to 9.0 before the experiments.
(§4) The conductance, G(V), was calculated as G(V)=I/(V−VK), (1) where I is the steady-state current measured at the end of each test-voltage sweep (100 ms after onset; Clampfit 10.5; Molecular Devices), V is the absolute membrane voltage, and VK is the reversal potential for K^+ ions (set to −80 mV). The conductance was fitted with a Boltzmann equation (GraphPad Prism 5; GraphPad Software, Inc.) GK(V)=GMAX/{1+exp[(V½−V)/s]}, (2) where GMAX is the amplitude (maximal conductance) of the curve, V is the absolute membrane voltage, V1/2 is the midpoint, and s is the slope. The resin-acid–induced G(V) shift was calculated as V1/2 (compound) − V1/2 (control). The relative change in GMAX was calculated as GMAX (compound) / GMAX (control). The concentration dependence for the G(V) shifts was calculated as ΔV= ΔVMAX/(1 +EC50/c), (3) where ΔV is the voltage shift, ΔVMAX is the voltage shift at saturating concentration, c is the concentration of the tested compound, and EC50 is the concentration at which half-maximum response occurs.

Shaker KV channel W454A = molecular target: T3, Shaker KV channel W454A (Drosophila melanogaster, UniProt P08510, DEL6-46/W454A); assay: Two-electrode voltage clamp in Xenopus oocytes: W454A; type: cell-based; conditions: 100 μM, pH 7.4, W454A
T3 construct: expressed in transfected cells; host or cells: Xenopus laevis oocytes (RNA injection)
Source text: (§5) The Shaker H4 channel (GenBank accession no. NM_167595.3; [Kamb et al., 1987]), with removed N-type inactivation due to a Δ6-46 deletion (ShH4IR, in Bluescript II KS(+) plasmid; [Hoshi et al., 1990]), is referred to as the WT Shaker KV channel. Addition of two positively charged arginines (M356R/A359R) at the extracellular top of the voltage sensor increases the effect of charged lipophilic compounds ([Ottosson et al., 2014], [2015], [2017]). […] However, for the resin-acid derivatives studied in the present investigation, R362 reduced the effect. Therefore, we specifically refer to the two added arginines just outside S4 (M356R/A359R) as the 2R motif. Mutations were introduced with site-directed mutagenesis and verified with sequencing as described previously ([Börjesson et al., 2010]). RNA injection and oocyte handling were performed as before ([Börjesson et al., 2010]; [Ottosson et al., 2015]). All animal experiments were approved by the Linköping’s local Animal Care and Use Committee.
(§6) Electrophysiological experiments were made 1–6 d after RNA injection. K^+ currents were measured with the two-electrode voltage-clamp technique (GeneClamp 500B amplifier; Axon Instruments) as described previously ([Ottosson et al., 2015]; [Silverå Ejneby et al., 2018]). […]
as §4, with “The conductance was fitted with a Boltzmann equation (GraphPad Prism 5; GraphPad Software, Inc.) GK(V)=GMAX/{1+exp[(V½−V)/s]}, (2) where GMAX is the amplitude (maximal conductance) of the curve, V is the absolute membrane voltage, V1/2 is the midpoint, and s is the slope.” left out

[3] = molecular target: T4, Shaker KV channel R362Q/R365Q/W454A/F280I (Drosophila melanogaster, UniProt P08510, DEL6-46/F280I/R362Q/R365Q/W454A); assay: Two-electrode voltage clamp in Xenopus oocytes: R362Q/R365Q/W454A/F280I; type: cell-based; conditions: 100 μM, pH 7.4, R362Q/R365Q/W454A/F280I
T4 construct: expressed in transfected cells; host or cells: Xenopus laevis oocytes (RNA injection)
Source text: as §5, with “Mutations were introduced with site-directed mutagenesis and verified with sequencing as described previously ([Börjesson et al., 2010]). RNA injection and oocyte handling were performed as before ([Börjesson et al., 2010]; [Ottosson et al., 2015]). All animal experiments were approved by the Linköping’s local Animal Care and Use Committee.” left out
as §6
The conductance, G(V), was calculated as G(V)=I/(V−VK), (1) where I is the steady-state current measured at the end of each test-voltage sweep (100 ms after onset; Clampfit 10.5; Molecular Devices), V is the absolute membrane voltage, and VK is the reversal potential for K^+ ions (set to −80 mV). […] The resin-acid–induced G(V) shift was calculated as V1/2 (compound) − V1/2 (control). The relative change in GMAX was calculated as GMAX (compound) / GMAX (control). […]

[4] = molecular target: T5, Shaker KV channel R362Q/R365Q (Drosophila melanogaster, UniProt P08510, DEL6-46/R362Q/R365Q); assay: Two-electrode voltage clamp in Xenopus oocytes: R362Q/R365Q; type: cell-based; conditions: 100 μM, pH 7.4, R362Q/R365Q
T5 construct: expressed in transfected cells; host or cells: Xenopus laevis oocytes (RNA injection)
Source text: as §5, §6
as §4, with “The conductance was fitted with a Boltzmann equation (GraphPad Prism 5; GraphPad Software, Inc.) GK(V)=GMAX/{1+exp[(V½−V)/s]}, (2) where GMAX is the amplitude (maximal conductance) of the curve, V is the absolute membrane voltage, V1/2 is the midpoint, and s is the slope.” left out

Shaker KV channel R362Q [5] = molecular target: T1, Shaker KV channel R362Q; assay: Two-electrode voltage clamp in Xenopus oocytes: R362Q; type: cell-based; conditions: 100 μM, pH 7.4, R362Q
Source text: as §5, §6
as §4, with “The conductance was fitted with a Boltzmann equation (GraphPad Prism 5; GraphPad Software, Inc.) GK(V)=GMAX/{1+exp[(V½−V)/s]}, (2) where GMAX is the amplitude (maximal conductance) of the curve, V is the absolute membrane voltage, V1/2 is the midpoint, and s is the slope.” left out

[6] = molecular target: T6, Shaker KV channel R362Q/W454A/F416A (Drosophila melanogaster, UniProt P08510, DEL6-46/F416A/R362Q/W454A); assay: Two-electrode voltage clamp in Xenopus oocytes: R362Q/W454A/F416A; type: cell-based; conditions: 100 μM, pH 7.4, R362Q/W454A/F416A
T6 construct: expressed in transfected cells; host or cells: Xenopus laevis oocytes (RNA injection)
Source text: as §5, §6
as §4, with “The conductance was fitted with a Boltzmann equation (GraphPad Prism 5; GraphPad Software, Inc.) GK(V)=GMAX/{1+exp[(V½−V)/s]}, (2) where GMAX is the amplitude (maximal conductance) of the curve, V is the absolute membrane voltage, V1/2 is the midpoint, and s is the slope.” left out

[7] = tested on: Shaker KV channel binding sites (S3/S4, S4/pore, residual); assay: Additive model of site contributions to the G(V) shift (least squares fit); set-up: species or system Drosophila melanogaster
Source text: We also considered a reduced dataset of five mutants for Wu50 to make the comparison between the two compounds equitable (Table S1).
The G(V) shift for each mutant was expressed as a sum of contribution from the various sites: ΔVmodel=ΔVS3/S4+ΔVS4/pore+ΔVResidual, (4) where ΔVS3/S4 is the G(V) shift due to compound binding to the S3/S4 site, ΔVS4/pore is the G(V) shift due to compound binding to the S4/pore site, and ΔVResidual is the G(V) shift due to compound binding to other sites, including the top-VSD site.
Following the assumptions based on observations made using MD simulations, ΔVS3/S4 was set to 0 if the 2R motif was missing (i.e., in the WT channel), ΔVS4/pore could adopt one of four values depending on the type of mutation (R362/W454 = WT configuration, R362Q, W454A, or R362Q/W454A), and ΔVResidual was assumed to be the same for all mutants.
The model further assumed that there is a residual effect that can be due to binding to the VSD-top site or to any other unidentified site and that the contributions due to binding to the S3/S4 site and the S4/pore site depend upon mutations at this site.

[8] = molecular target: T7, Shaker KV channel M356R/A359R/R362Q (Drosophila melanogaster, UniProt P08510, A359R/DEL6-46/M356R/R362Q); assay: Two-electrode voltage clamp in Xenopus oocytes: 2R motif/R362Q; type: cell-based; conditions: 100 μM, pH 7.4, M356R/A359R/R362Q
T7 construct: expressed in transfected cells; host or cells: Xenopus laevis oocytes (RNA injection)
Source text: as §5, §2
as §3, with “the experiments. This pH change had only small effects on channel kinetics and the G(V) relation.” for “the experiments.”
as §4, with “The conductance was fitted with a Boltzmann equation (GraphPad Prism 5; GraphPad Software, Inc.) GK(V)=GMAX/{1+exp[(V½−V)/s]}, (2) where GMAX is the amplitude (maximal conductance) of the curve, V is the absolute membrane voltage, V1/2 is the midpoint, and s is the slope.” left out

[9] = molecular target: T8, WT Shaker KV channel (ShH4IR) (Drosophila melanogaster, UniProt P08510, DEL6-46); assay: Two-electrode voltage clamp of Shaker KV channels expressed in Xenopus laevis oocytes: WT; type: cell-based; conditions: for EC50: WT, pH 7.4, concentration-response (Eq. 3), read-out: EC50 of the G(V) shift (apparent affinity)
T8 construct: expressed in transfected cells; host or cells: Xenopus laevis oocytes (RNA injection)
Source text: as §1, §2, §3, §4

T2 sequence (P08510 other isoform, or with tags, fused parts or gaps DEL6-46/M356R/A359R): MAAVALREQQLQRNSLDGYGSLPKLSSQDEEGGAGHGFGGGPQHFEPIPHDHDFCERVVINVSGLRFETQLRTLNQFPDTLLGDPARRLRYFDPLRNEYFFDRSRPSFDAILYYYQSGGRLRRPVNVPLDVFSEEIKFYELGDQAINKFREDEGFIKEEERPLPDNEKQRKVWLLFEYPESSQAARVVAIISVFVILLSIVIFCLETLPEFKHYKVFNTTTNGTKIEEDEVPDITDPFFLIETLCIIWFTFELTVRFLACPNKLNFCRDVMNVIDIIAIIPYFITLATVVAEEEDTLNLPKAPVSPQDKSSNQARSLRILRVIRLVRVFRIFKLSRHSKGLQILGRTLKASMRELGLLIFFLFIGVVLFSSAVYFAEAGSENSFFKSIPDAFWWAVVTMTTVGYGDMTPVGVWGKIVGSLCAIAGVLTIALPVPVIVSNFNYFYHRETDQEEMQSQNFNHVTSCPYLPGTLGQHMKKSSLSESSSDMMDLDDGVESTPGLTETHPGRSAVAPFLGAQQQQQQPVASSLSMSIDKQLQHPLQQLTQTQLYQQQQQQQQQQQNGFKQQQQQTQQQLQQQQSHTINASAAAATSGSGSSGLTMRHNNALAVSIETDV
T8 sequence (P08510 other isoform, or with tags, fused parts or gaps DEL6-46): as the sequence (P08510 other isoform, or with tags, fused parts or gaps DEL6-46/M356R/A359R) above, with R315M, R318A counted along it
T1 sequence (P08510 other isoform, or with tags, fused parts or gaps DEL6-46/R362Q): as the sequence (P08510 other isoform, or with tags, fused parts or gaps DEL6-46/M356R/A359R) above, with R315M, R318A, R321Q counted along it
T3 sequence (P08510 other isoform, or with tags, fused parts or gaps DEL6-46/W454A): as the sequence (P08510 other isoform, or with tags, fused parts or gaps DEL6-46/M356R/A359R) above, with R315M, R318A, W413A counted along it
T6 sequence (P08510 other isoform, or with tags, fused parts or gaps DEL6-46/R362Q/F416A/W454A): as the sequence (P08510 other isoform, or with tags, fused parts or gaps DEL6-46/M356R/A359R) above, with R315M, R318A, R321Q, F375A, W413A counted along it
T5 sequence (P08510 other isoform, or with tags, fused parts or gaps DEL6-46/R362Q/R365Q): as the sequence (P08510 other isoform, or with tags, fused parts or gaps DEL6-46/M356R/A359R) above, with R315M, R318A, R321Q, R324Q counted along it
T7 sequence (P08510 other isoform, or with tags, fused parts or gaps DEL6-46/M356R/A359R/R362Q): as the sequence (P08510 other isoform, or with tags, fused parts or gaps DEL6-46/M356R/A359R) above, with R321Q counted along it
T4 sequence (P08510 other isoform, or with tags, fused parts or gaps DEL6-46/F280I/R362Q/R365Q/W454A): as the sequence (P08510 other isoform, or with tags, fused parts or gaps DEL6-46/M356R/A359R) above, with F239I, R315M, R318A, R321Q, R324Q, W413A counted along it

In the case of `CC/C=C\C/C=C\C/C=C\C/C=C\C/C=C\C/C=C\CCC(=O)O` [DHA, docosahexaenoic acid], the “Change of the G(V)-shifting effect on neutralization of R362 (R362Q versus WT)” value (“Change of the G(V)-shifting effect” for short) (Shaker KV channel R362Q [1]) is listed as “no noticeable change”.
In the case of `CC(C)c1ccc2c(c1)CC[C@H]1[C@](C)(C(=O)O)CCC[C@]21C` [DHAA, dehydroabietic acid], the “Change of the G(V)-shifting effect” value (Shaker KV channel R362Q [1]) is listed as “increase in effect”.
For `CO/N=C1\C[C@H]2[C@](C)(C(=O)O)CCC[C@]2(C)c2cc(Br)c(C(C)C)cc21` [Wu32], the “Change of the G(V)-shifting effect” value (Shaker KV channel R362Q [1]) is listed as “increase in effect”.
With `CC(C)c1ccc2c(c1)CC[C@H]1[C@](C)(COS(=O)(=O)O)CCC[C@]21C` [Wu161] the “GMAX (rel.)” value ([2]; 100 μM, pH 7.4, M356R/A359R (=2R)) was 1.20 rel, the EC50 ([2]; 2R motif, pH 7.4, concentration-response (Eq. 3), read-out: EC50 of the G(V) shift (apparent affinity)) was 36.4 ± 9 µM and the “GMAX (rel.)” value (Shaker KV channel W454A) was 0.86 rel. The “GMAX (rel.)” value [3] was 0.64 rel, the “GMAX (rel.)” value [4] was 0.99 rel and the “GMAX (rel.)” value (Shaker KV channel R362Q [5]) was 1.05 rel. The “GMAX (rel.)” value [6] was 0.47 rel, the “ΔVS3/S4 (contribution of the S3/S4 site in the presence of the 2R mutations)” value ([7]; five mutants) was −17 mV and the “ΔVS4/pore, R362Q configuration” value ([7]; five mutants) was 0 to −6 mV. The “ΔVS4/pore, WT S4/pore site” value ([7]; five mutants) was −7 to −13 mV, the “ΔVS4/pore, W454A configuration” value ([7]; no clear difference between five-mutants and eight-mutants datasets) was “+2 to −6 mV” and the “GMAX (rel.)” value [8] was 1.19 rel. For the same compound, the “GMAX (rel.)” value ([9]; 100 μM, pH 7.4, WT) was 1.03 rel and the EC50 [9] was 43.7 ± 6.3 µM.
For `C[C@@]1(COS(=O)(=O)O)CCC[C@]2(C)c3cc(Cl)c(Cl)c(Cl)c3CC[C@@H]12` [Wu181], the “Increase of the maximum G(V) shift by the 2R motif” value ([2]; 2R motif versus WT, Wu50 pH 9.0, Wu161 and Wu181 pH 7.4) was 590%, the “ΔVMAX (maximum G(V) shift)” value ([2]; 2R motif, pH 7.4, concentration-response (Eq. 3)) was −53.6 ± 4.0 mV and the EC50 [9] was 1.6 ± 0.6 µM.
